Results reported in patent publication EP1080165B1, “HYDROCARBON LIQUID FORMULATION” (MACFARLAN SMITH LIMITED, priority 1998, dated 1999).
Blank lines part the entries; values can stand above or below the compound they belong to.

Tests used:
[1] = Evaluation of co-solvents for a clear stable formulation of denatonium benzoate in lamp oil; type: physicochemical; design: key to Assessment: Those combinations marked as "FAIL" were observed to exhibit turbidity and insufficient stability in the amount of denaturant introduced to the lamp oil; PASS: success in obtaining a clear stable formulation of the preferred denaturant; settings: for Assessment: clear stable formulation of denatonium benzoate/"BITREX" in lamp oil, only the co-solvent varied
Text: The following Table I summarises the results of this evaluation stage, and in particular assesses the success in obtaining a clear stable formulation of the preferred denaturant (denatonium benzoate/ "BITREX"®) in a target commercial product to be denatured (lamp oil). […] In each case, the only critical variation lay in the selection of the co-solvent. Apart from the attempted use of rape seed oil, it is assumed that the co-solvent is essentially a single chemical entity.
(§1) As an illustrative example of procedure, one may prepare a 40ppm "BITREX®" doped lamp oil by simply stirring in a previously prepared 0.1% solution of "BITREX®" in the selected co-solvent TEXANOL® to a level of 4% (all amounts described herein are w/w). A similar procedure was found effective in denaturing, white spirit, dearomatised white spirit, and isoparaffin.

[2] = Alkanol co-solvents enabling introduction of BITREX at the desired level; type: physicochemical; settings: co-solvent for BITREX in liquid hydrocarbon
[3] = Denaturing of other liquid hydrocarbons with a BITREX solution in TEXANOL; type: physicochemical; settings: 0.1% solution of BITREX in co-solvent stirred in; white spirit, dearomatised white spirit and isoparaffin
Text: as §1

[4] = as low as; cited from earlier work
[5] = cited from earlier work

Assessment [1]: FAIL
Compound: CCCCCCCCCC(=O)OC(C)C [Isopropyldecanoate]

Assessment [1]: FAIL
Compound: CCCCCCCCCCCC(=O)OCC(CC)CCCC (centres unmarked) [2-Ethylhexyllaurate]

Assessment [1]: FAIL
Compound: CCCCCCCCCCCC(=O)OC(C)C [Isopropyllaurate]

Further lines, the compound ahead of its results:

Compound: CCCCC(CC)COC(=O)C(CC)CCCC (centres unmarked) [2-Ethylhexyl-2-ethylhexanoate]
Assessment [1]: FAIL

Compound: CCCCCCCCCCCCCCCCO [1-hexadecanol]
effective in enabling introduction of the preferred aversive agent "BITREX" at the desired level [2]: effective

Compound: 2,2,4-trimethylpentan-1,3-diol-monoisobutanoate
Assessment [1]: PASS
effectiveness in achieving the objective of the invention ([1]; denatonium benzoate in lamp oil, summary of Table I): highly effective
effective in denaturing [3]: effective

Compound: CC[N+](CC)(CC(=O)Nc1c(C)cccc1C)Cc1ccccc1 [denatonium benzoate, Denatonium benzoate]
concentration giving an acceptable level of aversive activity [4]: 10 ppm
solubility in apolar liquids [5]: extremely insoluble

Compound: CCCCCCCCO [1-octanol]
effective in enabling introduction of the preferred aversive agent "BITREX" at the desired level [2]: effective
